The values below are quoted from earlier work in article PMC11542186, “Pin1 WW Domain Ligand Library Synthesized with an Easy Solid-Phase Phosphorylating Reagent” (Biochemistry, 2024).

Where a SMILES comes first, the peptide text is derived from it. [ ]: non-standard residue; d: D form. pT = C[C@@H](OP(=O)(O)O)[C@H](N)C(=O)O

The target of one data set is isolated Pin1 WW domain. Details: method as in PMID 16033261. Particulars: measured by NMR for the isolated Pin1 WW domain; cited from earlier work.
In a further data set the target is Pin1 WW domain. Details: method as in PMID 10932246. The following applies: read-out: affinity for the WW domain; cited from earlier work.
A further data set deals with full-length Pin1. Details: method as in PMID 10932246. Particulars: read-out: affinity for full-length Pin1; cited from earlier work.
For the next data set, the system named is Pin1 catalytic domain. Details: method as in PMID 10932246. The following applies: cited from earlier work.

Take `CC(=O)N[C@H](C(=O)N1CCC[C@H]1C(N)=O)[C@@H](C)OP(=O)(O)O` [Ac–pThr–Pro–NH2] (Ac-[pT]-Pro-NH2): at isolated Pin1 WW domain, the Kd was 150 µM.
In the case of Fmoc–VPRpTPVGGGK–NH2 [Compound L1], the Kd on Pin1 WW domain is 7.7 µM; on full-length Pin1 it was 4.9 µM. In addition, the “binding to the catalytic domain” value with Pin1 catalytic domain is given as “no binding”.
